Assay results: US9212146B2, “Substituted pyridazinones for the treatment of tumors” (SHANGHAI INSTITUTE OF MATERIA MEDICA, CHINESE ACADEMY OF …, priority 2008, dated 2015)

Columns and labels:
[1] = system: human hepatoma cell line Bel-7402; assay: SRB proliferation assay, Bel-7402; type: cell-based; settings: Homo sapiens, Bel-7402, 72 h, BEL-7402 cultivated in vitro, given as bounds, read-out: The Inhibition Activities for Human Liver Cancer Cells BEL-7402 (IC50)
Protocol: Protocol: the antineoplasmic activities in vitro of the compounds were assayed by a Sulforhodamine B (SRB) protocol. Tumor cells were cultivated at 37 under 5% CO2 in a RPMI 1640 medium or a DMEM medium (Gibco) containing 10% fetal bovine serum. Tumor cells were inoculated on a 96-well plate with a concentration of 0.4-1.0×10^4 cells per well according to the cell types. 24 hours later, the target compounds diluted 10 times were added, each compound having at least 5 concentrations. After treated by the compounds for 72 hours, the culture media were discarded, and the cells were fixed by 10% cold trichloroacetic acid, and then stained by Sulforhodamine B (SRB) solution. The uncombined SRB was washed off, and the SRB combined with protein was dissolved with Tris. OD values were recorded at 515 nm on an ELISA Reader, and the cell growth inhibition rate was calculated according to following equation: Inhibition rate=(ODcontrol−ODexperimental)/ODcontrol×100%
IC50 (50% inhibitory concentration) was calculated by using Logit method based on the inhibition rates at various concentration, and the results are shown in tables 1 and 2.
The following cell lines were used: human hepatocarcinoma cell line […]; ovarian cancer cell line SK-OV-3; human breast cancer cell line MDA-MB-231; human renal carcinoma cell line A498; colon adenocarcinoma cell line HT-29; non-small cell lung cancer cell line NCI-H460; lung adenocarcinoma cell line A549; human colon cancer cell line SW-620; human hepatoma cell line Bel-7402; human breast carcinoma cell line SK-BR-3; and human umbilical vein endothelial cells (HUVEC).

[2] = system: human liver cancer cells SMMC-7721 transplanted tumor; assay: SMMC-7721 transplanted tumor on nude mice; type: in vivo; settings: intragastrically once a day for 10 days; subcutaneous tumor on nude mice
Protocol: Experimental procedure: BALB/cA nude mice, 6-7 weeks old, ♀, were purchased from Shanghai SLAC Laboratory Animal Co. LTD. Certificate No.: SCXK (Shanghai) 2007-0005. Habitat: SPF level. The compounds were diluted with 0.5% CMC containing 0.1% Tween-80 to a desired concentration. Human liver cancer cells SMMC-7721 were inoculated on nude mice subcutaneously. After the tumor grew up to 100-200 mm^3, animals were grouped randomly (d0). Mice were consecutively administered with compounds intragastrically once a day for 10 days. The tumor volume was measured 2-3 times each week and the weights of mice were recorded. The tumor volume (V) was calculated according to the following equation: V=½×a×b^2, wherein, a and b are length and width, respectively.

[3] = system: human liver cancer cells Bel-7402 transplanted tumor; type: in vivo; settings: for Quantity of Animals Whose Tumors Vanished / Inhibition Rate (%) / Tumor Volume (mm^3): 100 mg/kg, PO, QDx11; for Quantity of Animals Whose Tumors Vanished: 5 animals per group; for Inhibition Rate (%) / Tumor Volume (mm^3): Bel-7402 on nude mice; for tumors vanished (animals/group): at the 11th day; for tumors vanished (animals/group) / toxicity / survivability of mice: intragastrically once a day for 11 days; for recrudescence of tumors: at the end of the experiment (17th day); for toxicity / survivability of mice: nude mice
Source text: Name and lot number: YHHU-744, a white powder, lot No.: No. c001471-106; YHHU-755, a white powder, lot No.: No. c001471-102; YHHU-756, a white powder, lot No.: No. c00147-106; YHHU-759, a white powder, lot No.: No. c001471-102; YHHU-776, a white powder, lot No.: No. c001471-107. Sorafenib was used as a positive control.
Formulation: YHHU-744, YHHU-755, YHHU-756, YHHU-759, YHHU-776 and the positive control were each diluted with 0.1% Tween-80 and distilled water to a desired concentration.
BALB/cA nude mice, 6-7 weeks old, ♀, were purchased from Shanghai SLAC Laboratory Animal Co. LTD. Certificate No.: SCXK (Shanghai) 2007-0005. Habitat: SPF level.
Human liver cancer cells Bel-7402 were inoculated on nude mice subcutaneously. After the tumor grew up to 300-450 mm^3, animals were grouped randomly (d0). The tumor volume was measured 2-3 times each week and the weights of mice were recorded. The tumor volume was calculated according to as the following equation. V=½×a×b^2 wherein, a and b are length and width, respectively. […]

Structure (SMILES)	IC50 [1] [nM]	growth of SMMC-7721 transplanted tumor [2]	Quantity of Animals Whose Tumors Vanished [3]	Inhibition Rate (%) [3] [%]	Tumor Volume (mm^3) [3] [mm^3]	tumors vanished (animals/group) [3]	recrudescence of tumors [3]	toxicity / survivability of mice [3]
O=c1ccc(-c2ccc(N3CCOCC3)c(C(F)(F)F)c2)n[nH]1 [YHHU-759]	< 10	significantly inhibited the growth	5	100	367.9	5/5	no recrudescence was observed	no significant toxicity was observed
CCC(C)(C)Oc1ccc(-c2ccc(=O)[nH]n2)cc1C(F)(F)F [YHHU-773]	< 100							
COC(CNc1ccc(-c2ccc(=O)[nH]n2)cc1C(F)(F)F)OC [YHHU-774]	< 100							
O=c1ccc(-c2ccc(OCCN3CCOCC3)c(C(F)(F)F)c2)n[nH]1 [YHHU-775]	< 100							
O=c1ccc(-c2ccc(N3CCC(O)CC3)c(C(F)(F)F)c2)n[nH]1 [YHHU-776]	< 10		5	100	338.2	5/5	no recrudescence was observed	no significant toxicity was observed
